Measured values as given in patent publication US8710097B2, “Flavonoid dimers and methods of making and using such” (The Hong Kong Polytechnic University, priority 2006, dated 2014).
Values joined by “and” are separate entries in the source; they are usually repeats but may differ in a detail not shown here. Identical values can stand only once.

Legend:
[1] = test system: Ld39 amastigotes; assay: Total antimony (SSG) accumulation assay using ICP-MS; type: cell-based, Leishmania donovani; settings: 3 hr
Procedure: (§1) Amastigotes of L. donovani was prepared by spinning down 50 mL 4-day-old promastigotes (late log phase), and transferred to an axenic medium containing M199 Medium (Gibco), 0.5% Trypto casein soya, 3 mM L-cysteine, 15 mM D-glucose, 5 mM L-glutamine, 4 mM NaHCO3, 25 mM HEPES, 0.01 mM bathocuproine-disulfonic acid and 0.023 mM Hemin. Cells were then incubated at 37° C. for 24 hr. Amastigotes became ovoid in shape and were ready for drug accumulation assay.
(§2) The effect of flavonoid dimers on accumulation of antimony sodium stibogluconate (SSG) was investigated. Amastigotes are more susceptible to SSG and therefore accumulate more SSG as compared to promastigotes. Therefore, amastigotes were chosen for studying the Sb accumulation assay. […] After 3 hour incubation, the parasites were washed thrice with cold PBS, pH 7.4. The cell pellet was dissolved in 200 μL concentrated nitric acid for 24 hr at room temperature. The sample was diluted to 3 mL with distilled water, resulting in a final concentration of about 5 ppb of total Sb solution. It was then injected to ICP-MS (Perkin-Elmer) for quantitation. Antimony was measured at its m/z ratios of 121 and 123 with indium (In, m/z=115) as an internal standard. All chemicals used for the pretreatment of the samples were of at least analytical grade and the distilled water used directly as received without further purification.

[2] = test system: LdAG83 amastigotes; assay: as above; type: cell-based, Leishmania donovani; settings: 9d 30 μM or 60 μM
Procedure: as §1, §2

[3] = test system: Ld2001 amastigotes; assay: as above; type: cell-based, Leishmania donovani; settings: 3 hr
Procedure: as §1, §2

[4] = test system: MDA435/LCC6 MDR cells; assay: Doxorubicin accumulation; type: cell-based, human
Procedure: Doxorubicin accumulation. 2.5 ml (10^5 cells/ml) MDA435/LCC6 (both parent and MDR subtype) cells were seeded in each well of 6-well plates. At confluence, culture medium was removed. 2 ml of fresh DMEM with modulators was added and cells were incubated for 30 min at 37° C. Doxorubicin (final concentration of 20 μM) was then added and incubated for 2 h at 37° C. The cells were then harvested by trypsinization.
For P388 (both parent and MDR subtype) cells, 1 ml (10^5 cells) confluent cells were aliquot into Eppendorf tube and pre-incubated with flavone dimers for 30 min at 37° C. Doxorubicin (final concentration of 10 μM) was then added and incubated for 2 h at 37° C. at a final concentration of 10 μM. The cell pellets were washed 3 times with cold PBS by using an Eppendorf micro-centrifuge and lysed with 0.3N HCL in 50% ethanol, and sonicated for 30s. After centrifugation at 10000 rpm/min for 3 min, the supernatant was saved. The fluorescence of doxorubicin was measured using a spectrofluorometer (λexcite=470 nm, λemit=585 nm).
In order to understand whether the modulating activity for various anticancer drugs by different dimers is due to their different ability to modulate P-gp mediated drug efflux, their effects on the accumulation of doxorubicin in both MDA435/LCC6 sensitive and resistant cells were investigated. Doxorubicin was a fluorescent drug substrate of P-gp and was used in this experiment to monitor the P-gp mediated drug efflux. Accumulation of doxorubicin in these cells was determined in the presence or absence of apigenin dimers (10 μM) and monomer (20 μM). Verapamil was used as a positive control.

[5] = test system: MDA435/LCC6 MDR cells; assay: cells
[6] = MDA435/LCC6 MDR, 5 μM dimer, FIG. 5

## O=c1cc(-c2ccc(OCCOCCOCCOCCOc3ccc(-c4cc(=O)c5c(O)cc(O)cc5o4)cc3)cc2)oc2cc(O)cc(O)c12 [Compound 9d, 1,13-Bis[4′-((5,7-dihydroxy)-4H-chromen-4-on-2-yl)phenyl]-1,4,7,10,13-pentaoxamidecane]
[1]; 30 μM 9d
  SSG accumulation, % of that of LdAG83: 74%
[1]; 60 μM 9d
  SSG accumulation, % of that of LdAG83: 90%
[2]
  accumulation of SSG versus cells without treatment: did not significantly differ
[3]; 30 μM 9d
  SSG accumulation, % of that of LdAG83: 83%
[3]; 60 μM 9d
  SSG accumulation, % of that of LdAG83: 69%
[4]; LCC6 MDR, 10 μM 9d
  doxorubicin accumulation relative to 9d-treated LCC6 cells: 97%
[4]; LCC6 MDR, apigenin dimers 10 μM, 20 μM doxorubicin, 2 h
  enhancement of doxorubicin accumulation, folds of control: 5.8 folds and 4 folds
[4]; MDA435/LCC6 MDR, 10 μM 9d, FIG. 7B
  intracellular doxorubicin concentration, % of the LCC6: 88%
[5]; LCC6 MDR, daunorubicin + 5 μM 9d
  RF, daunorubicin (IC50 without modulator / IC50 with modulator): 7.6
[5]; LCC6 MDR, doxorubicin + 5 μM 9d or VP
  RF, doxorubicin (IC50 without modulator / IC50 with modulator): 9
[5]; LCC6 MDR, mitoxantrone + 5 μM 9d
  RF, mitoxantrone (IC50 without modulator / IC50 with modulator): 2.2
[5]; LCC6 MDR, taxol + 5 μM 9d or VP
  RF, taxol (IC50 without modulator / IC50 with modulator): 22
[5]; LCC6 MDR, vinblastine + 5 μM 9d or VP
  RF, vinblastine (IC50 without modulator / IC50 with modulator): 10
[5]; LCC6 MDR, vincristine + 5 μM 9d
  RF, vincristine (IC50 without modulator / IC50 with modulator): 41
[5]; MDA435/LCC6 MDR, 5 μM 9d, FIG. 6A to 6E
  reversal of resistance to vinblastine, taxol, doxorubicin, vincristine, daunorubicin: to a level close to the parental
[5]; MDA435/LCC6 MDR, 5 μM 9d, FIG. 6F
  effect on mitoxantrone resistance: No effect
[5]; [6]
  IC60 of doxorubicin with modulator: 0.73 µM
  reduction of IC60 of doxorubicin, RF: about 6 RF
[5]; MDA435/LCC6 MDR, FIG. 3B
  concentration reaching the plateau of taxol reversing activity: 5 µM
